Assay results reported in patent publication US7135466B2 (Kirin Beer Kabushiki Kaisha, priority 1999, dated 2006).
Like-named read-outs stand apart in the source and are kept apart here.

Assays:
[1] = molecular target: T1, PDGF-Ra (Homo sapiens, UniProt P16234); assay: Inhibitory activity against PDGF-Ra phosphorylation by PDGF-AA stimulation using G292; type: cell-based; details: for IC50: > means inhibition at indicated concentration not more than 50%, < and << not less than 50%, read-out: PDGF (E) IC50; for inhibition at 0.1 µM: G292, read-out: PDGF (E) inhibition (%) at 100 nM
T1 construct: host or cells: G-292 human osteosarcoma cells
T1 sequence (P16234 24-1089): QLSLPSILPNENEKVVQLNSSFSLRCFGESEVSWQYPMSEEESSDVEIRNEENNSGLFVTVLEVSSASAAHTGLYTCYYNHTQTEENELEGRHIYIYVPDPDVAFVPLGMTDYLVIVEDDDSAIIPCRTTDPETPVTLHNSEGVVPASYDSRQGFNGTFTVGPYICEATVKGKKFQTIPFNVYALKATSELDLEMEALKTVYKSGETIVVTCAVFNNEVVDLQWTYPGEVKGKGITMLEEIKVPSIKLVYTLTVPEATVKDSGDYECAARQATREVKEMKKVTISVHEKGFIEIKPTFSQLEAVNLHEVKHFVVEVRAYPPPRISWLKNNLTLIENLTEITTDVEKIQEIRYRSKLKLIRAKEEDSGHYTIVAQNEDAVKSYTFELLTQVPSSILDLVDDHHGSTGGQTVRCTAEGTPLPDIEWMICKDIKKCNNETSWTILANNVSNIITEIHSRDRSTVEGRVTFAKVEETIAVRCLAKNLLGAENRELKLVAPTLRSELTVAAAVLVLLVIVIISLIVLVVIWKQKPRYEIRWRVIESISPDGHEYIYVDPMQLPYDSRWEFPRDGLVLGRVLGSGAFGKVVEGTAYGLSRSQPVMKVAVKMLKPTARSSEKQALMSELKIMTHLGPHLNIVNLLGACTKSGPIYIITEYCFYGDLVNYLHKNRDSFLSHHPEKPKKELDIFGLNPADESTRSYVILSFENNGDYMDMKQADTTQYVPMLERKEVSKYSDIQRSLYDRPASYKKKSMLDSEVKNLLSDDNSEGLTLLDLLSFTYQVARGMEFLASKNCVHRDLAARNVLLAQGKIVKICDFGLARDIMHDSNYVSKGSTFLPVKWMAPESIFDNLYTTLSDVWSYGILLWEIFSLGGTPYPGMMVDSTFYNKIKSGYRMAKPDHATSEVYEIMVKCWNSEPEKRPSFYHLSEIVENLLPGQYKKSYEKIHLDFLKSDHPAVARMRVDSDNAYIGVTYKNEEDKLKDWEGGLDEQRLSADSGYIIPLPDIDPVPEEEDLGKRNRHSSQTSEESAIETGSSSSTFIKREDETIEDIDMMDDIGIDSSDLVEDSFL
Method in brief: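 Read-out: A450 from a sandwich ELISA (PY-20 capture, anti-PDGF-Ra detection, peroxidase colour) of lysates from G-292 cells given compound for 1 hr at 37 °C before a 5 min challenge with PDGF-AA at 50 ng/ml.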

[2] = molecular target: T2, c-kit (Homo sapiens, UniProt P10721); assay: Inhibitory activity against c-kit autophosphorylation (MO7e cells, h-SCF); type: cell-based; details: for inhibition at 1 µM: Mo7e, at 1000 nM
T2 construct: MO7e (human megakaryocytic leukemia cell line) which had been arrested for 20 hr; endogenous in cells; host or cells: MO7e human megakaryocytic leukemia cell line
T2 sequence (P10721 26-976): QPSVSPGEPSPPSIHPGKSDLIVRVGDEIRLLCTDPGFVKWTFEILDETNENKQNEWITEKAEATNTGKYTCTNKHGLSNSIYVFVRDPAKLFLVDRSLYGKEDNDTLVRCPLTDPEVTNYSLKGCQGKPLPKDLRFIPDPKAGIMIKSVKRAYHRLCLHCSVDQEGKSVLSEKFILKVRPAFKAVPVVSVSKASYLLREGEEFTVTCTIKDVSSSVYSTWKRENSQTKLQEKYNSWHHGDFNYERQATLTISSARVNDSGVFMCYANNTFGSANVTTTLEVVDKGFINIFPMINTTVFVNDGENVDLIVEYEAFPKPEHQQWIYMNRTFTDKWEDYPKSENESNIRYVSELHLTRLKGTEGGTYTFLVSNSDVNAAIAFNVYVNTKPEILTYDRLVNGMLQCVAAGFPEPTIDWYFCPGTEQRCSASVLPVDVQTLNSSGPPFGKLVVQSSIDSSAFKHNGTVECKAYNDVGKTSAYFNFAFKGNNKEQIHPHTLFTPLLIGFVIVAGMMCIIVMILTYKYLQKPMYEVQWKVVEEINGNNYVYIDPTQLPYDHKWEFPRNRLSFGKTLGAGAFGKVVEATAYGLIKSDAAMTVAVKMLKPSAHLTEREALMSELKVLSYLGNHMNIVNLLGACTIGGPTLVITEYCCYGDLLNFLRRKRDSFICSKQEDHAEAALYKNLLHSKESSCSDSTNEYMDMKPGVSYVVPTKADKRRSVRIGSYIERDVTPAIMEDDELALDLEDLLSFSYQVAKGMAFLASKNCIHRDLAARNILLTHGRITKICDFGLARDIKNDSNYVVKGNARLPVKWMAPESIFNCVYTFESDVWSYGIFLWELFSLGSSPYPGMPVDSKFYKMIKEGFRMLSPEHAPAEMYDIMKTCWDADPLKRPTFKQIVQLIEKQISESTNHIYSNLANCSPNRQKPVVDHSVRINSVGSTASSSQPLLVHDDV
Method in brief: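 First, human megakaryocytic leukemia MO7e cells arrested 20 hr receive compound for one hour. Second, SCF stimulation (50 ng/ml) runs 5 min, after which cells are solubilized. Third, tyrosine-phosphorylated c-kit in the lysate is quantified by sandwich ELISA with absorbance at 450 nm.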

[3] = MO7e cells, h-SCF 50 ng/ml, read-out: c-kit IC50
[4] = MO7e cells, 50 ng/ml h-SCF, read-out: c-kit IC50
[5] = figure within parentheses in >100( ), at 100 nM
[6] = MO7e cells, h-SCF stimulation, read-out: c-kit IC50
[7] = figure within parentheses in −( ) or >1000( )

Structure (SMILES) | IC50 ([1]; Pharmacological Test Example 1) | IC50 [2, 3] | IC50 [1] | other results
COc1cc2nccc(Oc3ccc(NC(=O)Oc4ccc(-c5ccccc5)cc4)cc3)c2cc1OC [Example 294, 4-Phenylphenyl N-{4-[(6,7-dimethoxy-4-quinolyl)oxy]phenyl}carbamate] | 15 nM | 109 nM |  | 
COc1cc2nccc(Oc3ccc(NC(=S)NC(=O)C4C(C)(C)C4(C)C)cc3)c2cc1OC [Example 759] |  |  | 26 nM | IC50 [2, 4]: 323 nM
COc1cccc(C(C)OC(=O)Nc2ccc(Oc3ccnc4cc(OC)c(OC)cc34)cc2)c1 (stereo not drawn) [Example 52, 1-(3-Methoxyphenyl)ethyl N-{4-[(6,7-dimethoxy-4-quinolyl)oxy]phenyl}carbamate] | < 10 nM | 273 nM |  | 
COc1cc2nccc(Oc3cc(C)c(NC(=S)NCCCn4ccnc4)cc3C)c2cc1OC [Example 539] |  |  | > 100 nM | PDGF (E) inhibition (%) at 100 nM [1, 5]: 45%; IC50 [2, 4]: 415 nM
CCN(CC)C(=O)NC(=S)Nc1ccc(Oc2ccnc3cc(OC)c(OC)cc23)c(Cl)c1 [Example 1048, N-{3-Chloro-4-[(6,7-dimethoxy-4-quinolyl)oxy]phenyl}-{[(diethylamino)carbonyl]amino}methanethioamide] |  |  | < 10 nM | IC50 [2, 6]: 250 nM
COc1cc2nccc(Oc3ccc(NC(=S)NC(=O)N(CCCl)CCCl)cc3)c2cc1OC [Example 1042, N-{4-[(6,7-Dimethoxy-4-quinolyl)oxy]phenyl}-[{[di(2-chloroethyl)amino]carbonyl}amino]methanethioamide] |  |  | 39 nM | IC50 ([2]; c-kit IC50, MO7e cells, h-SCF stimulation): 107 nM
COc1cc2nccc(Oc3ccc(NC(=O)OCCCSc4ccc(C(C)(C)C)cc4)cc3)c2cc1OC [Example 72] | 36 nM | 387 nM |  | 
COc1cc2nccc(Oc3ccc(NC(=O)Oc4c(C)cccc4C)c(C)c3C)c2cc1OC [Example 271, 2,6-Dimethylphenyl N-(4-[(6,7-dimethoxy-4-quinolyl)oxy]-2,3-dimethylphenyl}carbamate] | 22 nM | 130 nM |  | 
CCOC(=O)N1CCC(NC(=O)Nc2ccc(Oc3ccnc4cc(OC)c(OC)cc34)cc2)CC1 [Example 561, Ethyl 4-[({4-[(6,7-dimethoxy-4-quinolyl)oxy]anilino}carbonyl)amino]-1-piperidine-carboxylate] |  |  | < 10 nM | IC50 [2, 4]: 54 nM
COc1cc2nccc(Oc3ccc(NC(=S)NC(=O)N4CCc5ccccc5C4)cc3)c2cc1OC [Example 1130, N-{4-[(6,7-Dimethoxy-4-quinolyl)oxy]phenyl}-N′-(1,2,3,4-tetrahydro-2-isoquinolylcarbonyl)thiourea] |  |  | < 10 nM | IC50 [2, 6]: 547 nM
CCN(CC)CCCNC(=S)Nc1ccc(Oc2ccnc3cc(OC)c(OC)cc23)c(C)c1C [Example 546, N-{4-[(6,7-Dimethoxy-4-quinolyl)oxy]-2,3-dimethylphenyl}-N′-(3-diethylaminopropyl)thiourea] |  |  | 54 nM | inhibition at 1 µM [2, 7]: 44%
COc1cc2nccc(Oc3ccc(NC(=S)NC(=O)Cc4ccccc4)cc3)c2cc1OC [Example 1022, N-{4-[(6,7-Dimethoxy-4-quinolyl)oxy]phenyl}-N′-(2-phenylacetyl)thiourea] |  |  | 28 nM | IC50 [2, 6]: 202 nM

Second part, led by results:

IC50 ([1]; Pharmacological Test Example 1) | IC50 [2, 3] | IC50 [1] | Structure (SMILES) | other results
10 nM | 36 nM |  | COc1cccc(COC(=O)Nc2ccc(Oc3ccnc4cc(OC)c(OC)cc34)c(C)c2C)c1 [Example 238, 3-Methoxybenzyl N-{4-[(6,7-dimethoxy-4-quinolyl)oxy]-2,3-dimethylphenyl}carbamate] | 
35 nM | 706 nM |  | COc1cc2ncnc(Oc3ccc(NC(=O)OC(C)c4cccc(OC(F)(F)F)c4)cc3)c2cc1OC (stereo not drawn) [Example 183, 1-[3-(Trifluoromethoxy)phenyl]ethyl N-{4-[(6,7-dimethoxy-4-quinazolinyl)oxy]phenyl}carbamate] | 
32 nM | 519 nM |  | COc1cc2ncnc(Oc3ccc(NC(=O)OCC4CCCCC4)c(Cl)c3)c2cc1OC [Example 341, Cyclohexylmethyl N-{2-chloro-4-[(6,7-dimethoxy-4-quinazolinyl)oxy]phenyl}carbamate] | 
6 nM | 42 nM |  | COc1cc2nccc(Oc3ccc(NC(=O)OCc4ccc(Cl)cc4)c(C)c3C)c2cc1OC [Example 237, 4-Chlorobenzyl N-{4-[(6,7-dimethoxy-4-quinolyl)oxy]-2,3-dimethylphenyl}carbamate] | 
< 10 nM | 387 nM |  | COc1cc2ncnc(Oc3ccc(NC(=O)OC(C)c4ccccc4Br)cc3)c2cc1OC (stereo not drawn) [Example 115, 1-(2-Bromophenyl)ethyl N-{4-[(6,7-dimethoxy-4-quinazolinyl)oxy]phenyl}carbamate] | 
< 10 nM | < 30 nM |  | C=CCOC(=O)Nc1ccc(Oc2ccnc3cc(OC)c(OC)cc23)c(C)c1C [Example 374, Allyl N-{4-[(6,7-dimethoxy-4-quinolyl)oxy]-2,3-dimethylphenyl}carbamate] | 
16 nM | 962 nM |  | COc1cc2ncnc(Oc3ccc(NC(=O)OC(C)c4cc(F)c(F)cc4F)cc3)c2cc1OC (stereo not drawn) [Example 95, 1-(2,4,5-Trifluorophenyl)ethyl N-{4-[(6,7-dimethoxy-4-quinazolinyl)oxy]phenyl}carbamate] | 
17 nM | 74 nM |  | COc1cc2ncnc(Oc3ccc(NC(=O)OCCCSc4cc(C)ccc4C)cc3)c2cc1OC [Example 172, 3-[(2,5-Dimethylphenyl)sulfanyl]-propyl N-{4-[(6,7-dimethoxy-4-quinazolinyl)oxy]phenyl}carbamate] | 
 |  | > 100 nM | COc1cc2ncnc(Oc3ccc(NC(=O)NN4CCCCC4)c([N+](=O)[O-])c3)c2cc1OC [Example 597, N-{4-[(6,7-Dimethoxy-4-quinazolinyl)oxy]-2-nitrophenyl}-N′-(1-piperidinyl)urea] | inhibition at 0.1 µM [1, 5]: 27%; inhibition at 1 µM [2, 7]: 8%
< 10 nM | < 30 nM |  | CCCCOC(=O)Nc1ccc(Oc2ncnc3cc(OC)c(OC)cc23)cc1 [Example 344, Butyl N-{4-[(6,7-dimethoxy-4-quinazolinyl)oxy]phenyl}carbamate] | 
17 nM | 422 nM |  | COc1cc2ncnc(Oc3ccc(NC(=O)OCc4ccc(C)cc4)c(Cl)c3)c2cc1OC [Example 2, 4-Methylbenzyl N-{2-chloro-4-[(6,7-dimethoxy-4-quinazolinyl)oxy]phenyl}carbamate] | 
 |  | > 100 nM | COc1cc2nccc(Oc3ccc(NC(=S)NC(=O)c4ccccc4OC)c(Cl)c3)c2cc1OC [Example 1103, N-{2-Chloro-4-[(6,7-dimethoxy-4-quinolyl)oxy]phenyl}-N′-(2-methoxybenzoyl)thiourea] | inhibition at 0.1 µM ([1]; figure in parentheses in >100( ), at 100 nM): 25%; inhibition at 1 µM ([2]; figure in parentheses in −( )): 3%
 |  | 11 nM | CCN(CCNC(=O)Nc1ccc(Oc2ncnc3cc(OC)c(OC)cc23)cc1Cl)c1cccc(C)c1 [Example 665, N-{2-Chloro-4-[(6,7-dimethoxy-4-quinazolinyl)oxy]phenyl}-N′-[2-(ethyl-3-methylanilino)ethyl]urea] | IC50 [2, 4]: 122 nM
< 10 nM | 163 nM |  | COc1cc2ncnc(Oc3ccc(NC(=O)OCCc4cccc(C(F)(F)F)c4)cc3)c2cc1OC [Example 85, 3-(Trifluoromethyl)phenethyl N-{4-[(6,7-dimethoxy-4-quinazolinyl)oxy]phenyl}carbamate] | 
< 10 nM | 621 nM |  | COc1cc2ncnc(Oc3ccc(NC(=O)OC(C)c4cccc(C(F)(F)F)c4)cc3)c2cc1OC (stereo not drawn) [Example 90, 1-[3-(Trifluoromethyl)phenyl]ethyl N-{4-[(6,7-dimethoxy-4-quinazolinyl)oxy]phenyl}carbamate] | 
